Assay results as given in patent publication US7683176B2, “Triazolyl pyridyl benzenesulfonamides” (ChemoCentryx, Inc., priority 2006, dated 2010).

Target: T1, CCR2 (Homo sapiens, UniProt P41597)
T1 construct: chemokine expressing cells (such as THP-1 cells for CCR2 assay or MOLT-4 cells for CCR9 assay); host or cells: THP-1
T1 sequence (P41597 1-360 isoform P41597-2): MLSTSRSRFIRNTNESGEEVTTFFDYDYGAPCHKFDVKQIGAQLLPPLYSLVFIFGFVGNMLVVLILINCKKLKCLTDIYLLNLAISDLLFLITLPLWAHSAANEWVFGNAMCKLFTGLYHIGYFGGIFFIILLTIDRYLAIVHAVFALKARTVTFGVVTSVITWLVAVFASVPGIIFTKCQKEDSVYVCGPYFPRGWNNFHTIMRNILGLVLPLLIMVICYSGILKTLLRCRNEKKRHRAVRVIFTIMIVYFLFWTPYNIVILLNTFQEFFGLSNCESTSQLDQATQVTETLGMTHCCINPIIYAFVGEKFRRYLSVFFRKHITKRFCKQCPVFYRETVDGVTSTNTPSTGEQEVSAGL
Assay: CCR2 activity in one of the chemotaxis, binding or calcium mobilization assays
Format: cell-based
Details: binding or calcium mobilization assays (THP-1 cells, MCP-1)
Experimental: THP-1 cells and MOLT-4 cells were obtained from the American Type Culture Collection (Manassas, Va.) and cultured in RPMI tissue culture medium supplemented with 10% fetal calf serum (FCS) in a humidified 5% CO2 incubator at 37° C. Recombinant human chemokine proteins MCP-1 and TECK were obtained from R&D Systems (Minneapolis, Minn.). ^125I-labeled MCP-1 protein was obtained from Amersham (Piscataway, N.J.). ChemoTX® chemotaxis microchambers were purchased from Neuro Probe (Gaithersburg, Md.). CyQUANT® cell proliferation kits were purchased from Molecular Probes (Eugene, Oreg.). Calcium indicator dye Fluo-4 AM was purchased from Molecular Devices (Mountain View, Calif.).
Conventional migration assay was used to determine the efficacy of potential receptor antagonists in blocking migration mediated through chemokines (such as CCR2 or CCR9). This assay was routinely performed using the ChemoTX® microchamber system with a 5-μm pore-sized polycarbonate membrane. To begin such an assay, chemokine expressing cells (such as THP-1 cells for CCR2 assay or MOLT-4 cells for CCR9 assay) were harvested by centrifugation of cell suspension at 1000 RPM on a GS-6R Beckman centrifuge. The cell pellet was resuspended in chemotaxis buffer (HBSS with 0.1% BSA) at 10×10^6 cells/mL for CCR2 assay (5×10^6 cells/mL for CCR9 assay). Test compounds at desired concentrations were prepared from 10 mM stock solutions by serial dilutions in chemotaxis buffer. An equal volume of cells and compounds were mixed and incubated at room temperature for 15 minutes. Afterwards, 20 μL of the mixture was transferred onto the porous membrane of a migration microchamber, with 29 μL of chemokine ligand (0.1 nM chemokine MCP-1 protein for CCR2 assay or […] chemokine TECK protein for CCR9 assay) placed at the lower chamber. Following an incubation at 37° C. (90-minute for CCR2; 150-minute for CCR9), during which cells migrated […] the chemokine gradient, the assay was terminated by removing the cell drops from atop the filter. To quantify cells migrated across the membrane, 5 μL of 7× CyQUANT® solution was added to each well in the lower chamber, and the fluorescence signal measured on a Spectrafluor Plus fluorescence plate reader (TECAN, Durham, N.C.). The degree of inhibition was determined by comparing migration signals between compound-treated and untreated cells. IC50 calculation was further performed by non-linear squares regression analysis using Graphpad Prism (Graphpad Software, San Diego, Calif.).
Calcium flux assay measures an increase in intracellular calcium following ligand-induced receptor activation. In the screen of chemokine antagonists, it was used as a secondary assay carried out on a FLIPR® machine (Molecular Devices, Mountain View, Calif.). To begin an assay, chemokine expressing cells (such as THP-1 cells for CCR2 assay or MOLT-4 cells for CCR9 assay) were harvested by centrifugation of cell suspension, and resuspended to 1.5×10^6 cells/mL in HBSS (with 1% fetal calf serum). Cells were then labeled with a calcium indicator dye Fluo-4 AM for 45 minutes at 37° C. with gentle shaking. Following incubation, cells were pelletted, washed once with HBSS and resuspended in the same buffer at a density of 1.6×10^6 cells/mL. One hundred microliters of labeled cells were mixed with 10 μL of test compound at the appropriate concentrations on an assay plate. Chemokine protein (MCP-1 at a final concentration of 0.1 nM for CCR2 assay or TECK at a final concentration of 25 nM for CCR9 assay) to activate the receptor. The degree of inhibition was determined by comparing calcium signals between compound-treated and untreated cells. IC50 calculations were further performed by non-linear squares regression analysis using Graphpad Prism (Graphpad Software, San Diego, Calif.).
Ligand binding assay was used to determine the ability of potential CCR2 antagonists to block the interaction between CCR2 and its ligand MCP-1. […]

| IC50 [nM] | Compound |
| --- | --- |
| < 1000 | CC(C)n1c(C(=O)N(C)C)nnc1-c1ncc(Cl)cc1NS(=O)(=O)c1ccc(Cl)c(C(F)(F)F)c1 |
| < 1000 | CC(C)n1c(N)nnc1-c1ncc(Cl)cc1NS(=O)(=O)c1ccc(Cl)c(C(F)(F)F)c1 |
| < 1000 | CN(C)C(=O)c1nnc(-c2ncc(Cl)cc2NS(=O)(=O)c2ccc(Cl)c(C(F)(F)F)c2)n1-c1ccon1 |
| < 1000 | C[C@@H](CO)n1cnnc1-c1ncc(Cl)cc1NS(=O)(=O)c1ccc(Cl)c(C(F)(F)F)c1 |
| < 1000 | O=C(c1nnc(-c2ncc(Cl)cc2NS(=O)(=O)c2ccc(Cl)c(C(F)(F)F)c2)n1-c1ccon1)N1CCOCC1 |
| < 1000 | O=S(=O)(Nc1cc(Cl)cnc1-c1nncn1-c1ccon1)c1ccc(Cl)c(Cl)c1 |
| < 1000 | CC(C)n1c(Br)nnc1-c1ncc(Cl)cc1NS(=O)(=O)c1ccc(Cl)c(C(F)(F)F)c1 |
| < 1000 | CC(CCO)n1cnnc1-c1ncc(Cl)cc1NS(=O)(=O)c1ccc(Cl)c(C(F)(F)F)c1 (stereo not drawn) |
| < 1000 | O=S(=O)(Nc1cc(Cl)cnc1-c1nnc(CO)n1-c1ccon1)c1ccc(Cl)c(C(F)(F)F)c1 |
| < 1000 | Cc1cnc(-c2nnc(C(N)=O)n2-c2ccon2)c(NS(=O)(=O)c2ccc(Cl)c(C(F)(F)F)c2)c1 |
| < 1000 | O=S(=O)(Nc1cc(Br)cnc1-c1nncn1-c1cc[nH]n1)c1ccc(Cl)c(C(F)(F)F)c1 |
| < 1000 | O=S(=O)(Nc1cc(Cl)cnc1-c1nnc(C(F)(F)F)n1-c1cc[nH]n1)c1ccc(Cl)c(C(F)(F)F)c1 |
| < 1000 | CC(C)n1c(CO)nnc1-c1ncc(Cl)cc1NS(=O)(=O)c1ccc(Cl)c(C(F)(F)F)c1 |
| < 1000 | Cc1ccccc1-n1cnnc1-c1ncc(Cl)cc1NS(=O)(=O)c1ccc(Cl)c(C(F)(F)F)c1 |
| < 1000 | O=C(c1nnc(-c2ncc(Cl)cc2NS(=O)(=O)c2ccc(Cl)c(C(F)(F)F)c2)n1-c1ccon1)N1CCCC1 |
| < 1000 | COc1ccc(F)cc1-n1cnnc1-c1ncc(Cl)cc1NS(=O)(=O)c1ccc(Cl)c(C(F)(F)F)c1 |
| < 1000 | O=S(=O)(Nc1cc(Cl)cnc1-c1nncn1-c1n[nH]cc1Br)c1ccc(Cl)c(Cl)c1 |
| < 1000 | Cc1cnc(-c2nncn2-c2cc[nH]n2)c(NS(=O)(=O)c2ccc(Cl)c(C(F)(F)F)c2)c1 |
| < 1000 | O=S(=O)(Nc1cc(Cl)cnc1-c1nnc(C(F)(F)F)n1-c1ccccc1)c1ccc(Cl)c(C(F)(F)F)c1 |
| < 1000 | O=S(=O)(Nc1cc(Cl)cnc1-c1nnc(Br)n1-c1ccon1)c1ccc(Cl)c(C(F)(F)F)c1 |
| < 1000 | Cn1nccc1-n1cnnc1-c1ncc(Cl)cc1NS(=O)(=O)c1ccc(Cl)c(C(F)(F)F)c1 |
| < 1000 | Cc1cnc(-c2nnc(C(N)=O)n2-c2ccccc2)c(NS(=O)(=O)c2ccc(Cl)c(C(F)(F)F)c2)c1 |
| < 1000 | Cc1ccc(S(=O)(=O)Nc2cc(Cl)cnc2-c2nnc(C(N)=O)n2-c2ccon2)cc1C(F)(F)F |
| < 1000 | COCc1nnc(-c2ncc(Cl)cc2NS(=O)(=O)c2ccc(Cl)c(C(F)(F)F)c2)n1-c1ccon1 |
| < 1000 | CCCn1cnnc1-c1ncc(Cl)cc1NS(=O)(=O)c1ccc(Cl)c(C(F)(F)F)c1 |
| < 1000 | Cc1nnc(-c2ncc(Cl)cc2NS(=O)(=O)c2ccc(Cl)c(C(F)(F)F)c2)n1-c1n[nH]cc1Br |

| IC50 [nM] | Compound |
| --- | --- |
| < 1000 | CCOC(=O)c1nnc(-c2ncc(Cl)cc2NS(=O)(=O)c2ccc(Cl)c(C(F)(F)F)c2)n1C(C)C |
| < 1000 | Cc1c[nH]nc1-n1cnnc1-c1ncc(Cl)cc1NS(=O)(=O)c1ccc(Cl)c(C(F)(F)F)c1 |
| < 1000 | O=S(=O)(Nc1cc(Cl)cnc1-c1nncn1C1CCNCC1)c1ccc(Cl)c(C(F)(F)F)c1 |
| < 1000 | NC(=O)c1nnc(-c2ncc(Cl)cc2NS(=O)(=O)c2ccc(Cl)c(Cl)c2)n1-c1ccon1 |
| < 1000 | CCOC(=O)c1nnc(-c2ncc(Cl)cc2NS(=O)(=O)c2ccc(Cl)c(C(F)(F)F)c2)n1-c1ccon1 |
| < 1000 | Cc1n[nH]cc1-n1cnnc1-c1ncc(Cl)cc1NS(=O)(=O)c1ccc(Cl)c(C(F)(F)F)c1 |
| < 1000 | CC(C)n1c(CN(C)C)nnc1-c1ncc(Cl)cc1NS(=O)(=O)c1ccc(Cl)c(C(F)(F)F)c1 |
| < 1000 | O=S(=O)(Nc1cc(Cl)cnc1-c1nnc(Br)n1-c1n[nH]cc1Br)c1ccc(Cl)c(Cl)c1 |
| < 1000 | O=S(=O)(Nc1cc(Cl)cnc1-c1nncn1C1CCNC1)c1ccc(Cl)c(C(F)(F)F)c1 (stereo not drawn) |
| < 1000 | O=S(=O)(Nc1cc(Br)cnc1-c1nncn1-c1ccon1)c1ccc(Cl)c(C(F)(F)F)c1 |
| < 1000 | O=S(=O)(Nc1cc(Cl)cnc1-c1nnc(C2CC2)n1-c1cc[nH]n1)c1ccc(Cl)c(C(F)(F)F)c1 |
| < 1000 | CO[C@H]1CNC[C@@H]1n1cnnc1-c1ncc(Cl)cc1NS(=O)(=O)c1ccc(Cl)c(C(F)(F)F)c1 |
| < 1000 | COCc1nnc(-c2ncc(Cl)cc2NS(=O)(=O)c2ccc(Cl)c(C(F)(F)F)c2)n1-c1cc[nH]n1 |
| < 1000 | CC(CN(C)C)n1cnnc1-c1ncc(Cl)cc1NS(=O)(=O)c1ccc(Cl)c(C(F)(F)F)c1 (stereo not drawn) |
| < 1000 | CC(C)NC(=O)c1nnc(-c2ncc(Cl)cc2NS(=O)(=O)c2ccc(Cl)c(C(F)(F)F)c2)n1-c1ccon1 |
| < 1000 | CCN(C)C(=O)c1nnc(-c2ncc(Cl)cc2NS(=O)(=O)c2ccc(Cl)c(C(F)(F)F)c2)n1-c1ccon1 |
| < 1000 | O=S(=O)(Nc1cc(Cl)cnc1-c1nncn1-c1cn[nH]c1)c1ccc(Cl)c(C(F)(F)F)c1 |
| < 1000 | NC(=O)c1nnc(-c2ncc(Cl)cc2NS(=O)(=O)c2ccc(Cl)c(C(F)(F)F)c2)n1-c1ccon1 |
| < 1000 | O=S(=O)(Nc1cc(Cl)cnc1-c1nncn1-c1cc[nH]n1)c1ccc(Cl)c(Cl)c1 |
| < 1000 | CCNC(=O)c1nnc(-c2ncc(Cl)cc2NS(=O)(=O)c2ccc(Cl)c(C(F)(F)F)c2)n1-c1ccon1 |
| < 1000 | O=S(=O)(Nc1cc(Cl)cnc1-c1nncn1-c1n[nH]cc1Br)c1ccc(Cl)c(C(F)(F)F)c1 |
| < 1000 | CC(C)n1c(C(N)=O)nnc1-c1ncc(Cl)cc1NS(=O)(=O)c1ccc(Cl)c(C(F)(F)F)c1 |
| < 1000 | CC(C)(C)c1nnc(-c2ncc(Cl)cc2NS(=O)(=O)c2ccc(Cl)c(C(F)(F)F)c2)n1-c1cc[nH]n1 |
| < 1000 | CC(C)c1nnc(-c2ncc(Cl)cc2NS(=O)(=O)c2ccc(Cl)c(C(F)(F)F)c2)n1-c1cc[nH]n1 |
| < 1000 | CC(C)n1c(Cl)nnc1-c1ncc(Cl)cc1NS(=O)(=O)c1ccc(Cl)c(C(F)(F)F)c1 |
